According to the supplement of paper PMC10307832:

What was measured:
Assay in all cases: relative viability (nuclei count vs DMSO), 5 days (fraction); higher = more cells survive
[1] = compound: CCn1c(-c2nonc2N)nc2cnc(Oc3cccc(NC(=O)c4ccc(OCCN5CCOCC5)cc4)c3)cc21 + O=C(CCCCCCC(=O)Nc1ccccc1)NO [Vorinostat] (partner 1 µM)
How it was run: (§1)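 Relative viability divides the nuclei count in treated wells by that in vehicle wells. Lung cancer cell lines were seeded in 1536-well plates, dosed by pin tool the next day, and fixed and stained after 5 days in one step with final 0.05% Triton X-100, 1% formaldehyde and 1 ug/ml Hoechst. Dosing was a single drug or a fixed anchor-drug dose plus five library-drug doses (not always all listed) in √10 steps, and values are medians of duplicate plates imaged at 4×.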

[2] = compound: N=C1NC(=O)/C(=C/c2ccc(O)cc2)S1 [Mirin] + O=C(CCCCCCC(=O)Nc1ccccc1)NO [Vorinostat] (partner 1 µM)
How it was run: as §1

[3] = compound: CCn1c(-c2nonc2N)nc2cnc(Oc3cccc(NC(=O)c4ccc(OCCN5CCOCC5)cc4)c3)cc21 + Nc1ncn([C@H]2C[C@H](O)[C@@H](CO)O2)c(=O)n1 [Decitabine] (partner 2 µM)
How it was run: as §1

[4] = compound: CCn1c(-c2nonc2N)nc2cnc(Oc3cccc(NC(=O)c4ccc(OCCN5CCOCC5)cc4)c3)cc21 + C[C@@H](Oc1cc(-c2cnn(C3CCNCC3)c2)cnc1N)c1c(Cl)ccc(F)c1Cl [Crizotinib] (partner 1 µM)
How it was run: as §1

Row | Cell Line | relative viability ([1]; first compound 0.04 µM) | relative viability ([1]; first compound 0.1265 µM) | relative viability ([1]; first compound 0.4 µM) | relative viability ([1]; first compound 1.265 µM) | relative viability ([1]; first compound 4 µM) | relative viability ([2]; first compound 0.25 µM) | relative viability ([2]; first compound 0.7906 µM) | relative viability ([2]; first compound 2.5 µM) | relative viability ([2]; first compound 7.906 µM) | relative viability ([2]; first compound 25 µM) | relative viability ([3]; first compound 0.04 µM) | relative viability ([3]; first compound 0.1265 µM) | relative viability ([3]; first compound 0.4 µM) | relative viability ([3]; first compound 1.265 µM) | relative viability ([3]; first compound 4 µM) | relative viability ([4]; first compound 0.04 µM) | relative viability ([4]; first compound 0.1265 µM) | relative viability ([4]; first compound 0.4 µM) | relative viability ([4]; first compound 1.265 µM) | relative viability ([4]; first compound 4 µM)
1 | A-427 | 0.812 | 0.733 | 0.587 | 0.243 | 0.284 | 0.84 | 0.922 | 0.904 | 0.878 | 0.956 | 0.542 | 0.517 | 0.475 | 0.278 | 0.291 | 0.966 | 1.08 | 0.846 | 0.998 | 0.879
2 | SK-LU-1 | 0.895 | 0.654 | 0.593 | 0.422 | 0.42 | 0.771 | 0.823 | 0.815 | 0.599 | 0.6 | 0.628 | 0.571 | 0.423 | 0.459 | 0.424 | 1.12 | 0.744 | 0.61 | 0.46 | 0.355
3 | NCI-H838 | 0.459 | 0.372 | 0.337 | 0.329 | 0.205 | 0.773 | 0.751 | 0.765 | 0.802 | 0.82 | 0.422 | 0.393 | 0.303 | 0.331 | 0.271 | 0.725 | 0.427 | 0.466 | 0.272 | 0.228
4 | LCLC-97TM1 | 1.12 | 0.856 |  | 0.705 | 0.662 | 0.887 | 0.204 | 0.743 | 0.697 | 0.679 | 0.258 | 0.235 |  | 0.232 | 0.258 | 0.278 | 0.524 |  | 0.427 | 0.596
5 | BEN | 0.566 | 0.544 | 0.371 | 0.349 | 0.402 | 0.473 | 0.58 | 0.6 | 0.555 | 0.542 | 0.734 | 0.495 | 0.451 | 0.373 | 0.489 | 0.818 | 0.869 | 0.631 | 0.318 | 0.303
6 | NCI-H2023 | 1.02 | 0.675 | 0.669 | 0.429 | 0.334 | 0.683 | 0.724 | 0.653 | 0.628 | 0.595 | 0.232 | 0.231 | 0.216 | 0.173 | 0.199 | 0.737 | 0.736 | 0.593 | 0.25 | 0.194
7 | LC-2-ad | 0.728 | 0.618 | 0.258 | 0.29 | 0.277 | 0.641 | 0.7 | 0.713 | 0.624 | 0.679 | 0.769 | 0.755 | 0.818 | 0.642 | 0.615 | 0.52 | 0.478 | 0.435 |  | 0.347
8 | ABC-1 | 1.25 | 0.8 | 0.822 | 0.32 | 0.665 | 1.29 | 1.12 | 1.36 | 0.871 | 0.772 | 1.13 | 1.07 | 1.21 | 0.507 | 0.672 | 1.7 | 0.973 | 1 | 0.608 | 0.396
9 | NCI-H650 | 0.503 | 0.28 | 0.24 | 0.192 | 0.224 | 0.484 | 0.338 | 0.414 | 0.389 | 0.448 | 0.288 | 0.318 | 0.301 | 0.237 | 0.32 | 0.838 | 0.758 | 0.432 | 0.388 | 0.339
10 | NCI-H1755 | 0.843 | 0.796 | 0.615 | 0.577 | 0.506 | 0.761 | 0.62 | 0.863 | 0.59 | 0.824 | 0.732 | 0.72 | 0.729 | 0.719 | 0.654 | 0.911 | 0.94 | 0.845 | 0.795 | 0.776
11 | EPLC-272H | 0.467 | 0.545 | 0.425 | 0.357 | 0.348 | 0.415 | 0.549 | 0.487 | 0.349 | 0.192 | 0.469 | 0.442 | 0.374 | 0.299 | 0.375 | 1.24 | 1.12 | 0.83 | 0.871 | 0.932
12 | NCI-H1437 | 0.88 | 0.93 | 0.903 | 0.682 | 0.512 | 0.88 | 0.955 | 0.875 | 0.896 | 1.02 | 0.489 | 0.61 | 0.547 | 0.499 | 0.426 | 0.788 | 0.949 | 0.749 | 0.703 | 0.666
13 | EKVX | 0.786 | 0.365 | 0.757 | 0.513 | 0.647 | 0.784 |  | 0.785 | 0.935 | 0.799 | 0.397 | 0.381 | 0.331 | 0.35 | 0.34 | 1.14 | 0.994 | 0.893 | 0.724 | 0.788
14 | NCI-H1651 | 0.604 | 0.639 | 0.467 | 0.292 | 0.497 | 0.224 | 0.554 | 0.478 | 0.567 | 0.591 | 0.74 | 0.728 | 0.581 | 0.271 | 0.488 | 0.871 | 0.98 | 0.822 | 0.667 | 0.907
15 | HCC-15 | 0.938 | 0.785 | 0.81 | 0.767 | 0.718 | 0.902 | 0.955 | 0.915 | 0.838 | 0.82 | 0.608 | 0.516 | 0.446 | 0.427 | 0.507 | 0.961 | 0.746 | 0.723 | 0.75 | 0.772
16 | LCLC-103H | 0.921 | 0.8 | 0.55 | 0.537 | 0.512 | 0.774 | 0.695 | 0.79 | 0.793 | 0.868 | 0.647 | 0.686 | 0.704 | 0.664 | 0.723 | 1.08 | 1.09 | 0.962 | 1.01 | 0.967
17 | NCI-H2347 | 0.654 | 0.656 | 0.488 | 0.348 | 0.427 | 0.569 | 0.645 | 0.641 | 0.494 | 0.66 | 0.607 | 0.565 | 0.624 | 0.461 | 0.434 | 0.602 | 0.69 | 0.589 | 0.484 | 0.39
